Assay results from patent US20240158373A1, “RING-MODIFIED PROLINE SHORT PEPTIDE COMPOUND AND USE THEREOF” (FUJIAN AKEYLINK BIOTECHNOLOGY CO., LTD., priority 2021, published 2024).
Read-outs that look alike come from different tables or passages of the source.

Key:
[1] = target: T1, SARS-CoV-2 Mpro (Severe acute respiratory syndrome coronavirus 2, UniProt P0DTD1); assay: In vitro anti-novel coronavirus Mpro protease activity (fluorogenic substrate); format: biochemical; conditions: 25 nM Mpro, 25 μM substrate, 30 min pre-incubation
T1 construct: SARS-CoV-2 Mpro; purchased WuXi AppTec
Description: The compound was dissolved in DMSO, and diluted in a 3-fold gradient with Echo655 according to the concentration requirements to 10 concentration points, and duplicate tests were set at each concentration, and the diluted solution was added to a 384-well plate. Mpro protein and substrate were diluted with test buffer (100 mM NaCl, 20 mM Tris-HCl, 1 mM EDTA), and Mpro protein was added to the 384-well test plate, incubated with the compound for 30 min at room temperature, and then the substrate was added thereto, and the test concentration of Mpro protein was 25 nM, and the test concentration of substrate was 25 μM. After incubating for 60 minutes in a 30° C. constant temperature incubator, the fluorescence signal value of Ex/Em=340 nm/490 nm was detected by microplate reader. At the same time, the background well containing the substrate and compound but not containing Mpro protein was detected as control.
1) The inhibition rate was calculated using the following formula:
Inhibition rate %=[(compound-BGcompound)−(ZPE-BGZPE)]/[(HPE-BGHPE)−(ZPE-BGZPE)]*100%
ZPE: No-inhibition control, containing 25 nM Mpro protein+25 μM substrate, not containing compound
Compound: Test compound well, containing 25 nM Mpro protein+25 μM substrate+compound
BG: Background control well, containing 25 μM substrate+compound, not containing Mpro protein
2) Log (agonist) vs. response—variable slope nonlinear fitting analysis was carried out on the inhibition rate data (inhibition rate %) of the compound by using GraphPad Prism software, and the IC50 value of the compound was obtained.

[2] = Pharmacokinetics test of mice; format: in vivo, C57BL/6J male mice; conditions: mouse, plasma
Description: In this study, C57BL/6J male mice were selected as test animals, and LC/MS/MS method was used to quantitatively measure the plasma concentration of the test compound 11 at different time points after oral administration and injection in mice, so as to evaluate the pharmacokinetic characteristics of the test drug in mice.
The test compound dissolved in 30% PEG400+70% normal saline was administered to mice (overnight fasting, 6-8 weeks old) by intragastric administration. 25 μL of blood was collected at 0.083, 0.25, 0.5, 1, 2, 4, 8, 12 and 24 hours after administration, respectively, and placed in commercial anticoagulation tubes pre-added with EDTA-K2, centrifuged at 4° C., 3200 g for 10 min to obtain plasma, and after the plasma sample was treated, the plasma concentration was determined by LC-MS/MS method.

[3] = Tissue distribution test in rats (after Ritonavir); format: in vivo, SD male rats; conditions: rat, po, 30 mg/kg, with Ritonavir
Description: In this study, SD male rats were selected as test animals, and the drug concentrations of test compounds in plasma and lungs of rats at different time points were quantitatively measured by LC/MS/MS method to evaluate the pharmacokinetic characteristics of test drugs in rats.
Firstly, 10 mpk of Ritonavir was administered to rats by intragastric administration at −12 h and 0 h, and 30 mpk of the test compound was dissolved in 10% Solutol+30% PEG 400+2% Tween 80+H2O 58% solution and administered to rats by intragastric administration (overnight fasting). 40 μL of blood was collected from the saphenous vein of rats at 0.25, 1 and 6 hours after administration, placed in an anticoagulant tube added with EDTA-K2, centrifuged at 4° C., 3200 g for 10 min to obtain plasma, and some animals were killed at 0.25, 1 and 6 hours respectively to collect lung tissue. After the plasma samples were treated, the plasma concentration was determined by LC-MS/MS method.

[4] = Pharmacokinetic test in combination with Ritonavir in mice; format: in vivo, C57BL/6J male mice; conditions: mouse, plasma, po, 10 mg/kg, p.o. 10 mpk
Description: In this study, C57BL/6J male mice were selected as test animals, and the LC/MS/MS method was used to quantitatively measure the plasma concentrations of mice in combination with Ritonavir at different time points, so as to evaluate the pharmacokinetic characteristics of the test drug in mice.
Firstly, 10 mpk of Ritonavir was administered to mice by intragastric administration at −12 h and 0 h, and then the test compound was dissolved in 30% PEG400+70% normal saline solution and administered to mice by intragastric administration (overnight fasting, 6 to 8 weeks old). 25 μL of blood was collected at 0.083, 0.25, 0.5, 1, 2, 4, 8, 12 and 24 hours after administration to animals, placed in a commercial anticoagulant tube pre-added with EDTA-K2, and centrifuged at 4° C., 3200 g for 10 min to obtain plasma. After the plasma samples were treated, the plasma concentration was determined by LC-MS/MS method.

Compound: CC(C)(C)[C@H](NC(=O)C(F)(F)F)C(=O)N1C[C@@H]2C3C=CC(C3)[C@@H]2[C@H]1C(=O)N[C@H](C#N)C[C@@H]1CCNC1=O (single isomer, unassigned) [Compound 28A]
- IC50 [1]: 0.0026 µM

Compound: CC(C)(C)[C@H](NC(=O)C(F)(F)F)C(=O)N1C[C@@H]2C3C=CC(C3)[C@@H]2[C@H]1C(=O)N[C@H](C#N)C[C@@H]1CCNC1=O (single isomer, unassigned) [Compound 28]
- IC50 [1]: 0.031 µM

Compound: CC(C)(C)[C@H](NC(=O)C(F)(F)F)C(=O)N1C[C@@H]2C3CCC(C3)[C@@H]2[C@H]1C(=O)N[C@H](C#N)C[C@@H]1CCNC1=O (single isomer, unassigned) [Compound 29-1]
- IC50 [1]: 0.264 µM

Compound: CC(C)(C)[C@H](NC(=O)C(F)(F)F)C(=O)N1C[C@@H]2C3CCC(C3)[C@@H]2[C@H]1C(=O)N[C@H](C#N)C[C@@H]1CCNC1=O (single isomer, unassigned) [Compound 29-2]
- IC50 [1]: 0.011 µM

Compound: N#C[C@H](C[C@@H]1CCNC1=O)NC(=O)[C@@H]1[C@H]2CC[C@H](C2)N1C(=O)[C@@H](NC(=O)C(F)(F)F)C12CC3CC(CC(F)(C3)C1)C2 [Compound 9]
- IC50 [1]: 0.025 µM

Compound: CC(C)(C)[C@H](NC(=O)C(F)(F)F)C(=O)N1[C@H]2C[C@@H]([C@H]1C(=O)N[C@H](C#N)C[C@@H]1CCNC1=O)C1(CC1)C2 [Compound 11]
- AUC(0-t) ([2]; iv, 3 mg/kg, i.v. 3 mpk): 1.45 µM·h
- clearance ([2]; iv, 3 mg/kg, i.v. 3 mpk): 68.5 mL/min/kg
- half-life ([2]; iv, 3 mg/kg, i.v. 3 mpk): 12 min
- Vd ([2]; iv, 3 mg/kg, i.v. 3 mpk, read-out: Vdss): 0.9 L/kg
- AUC(0-t) ([2]; po, 10 mg/kg, p.o. 10 mpk): 1.52 µM·h
- Tmax ([2]; po, 10 mg/kg, p.o. 10 mpk): 15 min
- Cmax ([2]; po, 10 mg/kg, p.o. 10 mpk): 1.85 µM
- Kp at 0.25 h ([3]; lung, 0.25 h, given as x/1, read-out: Lung/plasma ratio at 0.25 h): 5.5
- Kp at 1 h ([3]; lung, 1 h, given as x/1, read-out: Lung/plasma ratio at 1 h): 3.2
- Kp at 6 h ([3]; lung, 6 h, given as x/1, read-out: Lung/plasma ratio at 6 h): 1.6
- Kp at 6 h ([3]; lung, given as x/1, read-out: Lung/plasma ratio of AUC(0-6 h)): 2.6
- concentration at 0.25 h ([3]; 30 mpk intragastric, lung, 0.25 h, read-out: Lung concentration at 0.25 h): 15.8 µM
- concentration at 1 h ([3]; 30 mpk intragastric, lung, 1 h, read-out: Lung concentration at 1 h): 18.4 µM
- concentration at 6 h ([3]; 30 mpk intragastric, lung, 6 h, read-out: Lung concentration at 6 h): 7.85 µM
- AUC at 6 h ([3]; 30 mpk intragastric, lung, read-out: Lung AUC(0-6 h)): 76.8 µM·h
- AUC(0-t) at 6 h ([3]; 30 mpk intragastric, plasma): 29.4 µM·h
- concentration at 0.25 h ([3]; 30 mpk intragastric, plasma, 0.25 h, read-out: Plasma concentration at 0.25 h): 2.86 µM
- concentration at 1 h ([3]; 30 mpk intragastric, plasma, 1 h, read-out: Plasma concentration at 1 h): 5.49 µM
- concentration at 6 h ([3]; 30 mpk intragastric, plasma, 6 h, read-out: Plasma concentration at 6 h): 4.88 µM
- AUC(0-t) ([4]; with Ritonavir 10 mpk): 28.7 µM·h
- Tmax ([4]; with Ritonavir 10 mpk): 30 min
- Cmax ([4]; with Ritonavir 10 mpk at −12 h and 0 h): 10.1 µM
